Square brackets hold non-standard residues; d marks the D form. Peptide text beside a SMILES is read from it. Sar = CNCC(=O)O

Common to all, as to assay type: ADME
For data set [1], the target named is T1, Solute carrier organic anion transporter family member 1B3 (Homo sapiens, UniProt Q9NPD5).
T1 sequence (Q9NPD5 whole entry): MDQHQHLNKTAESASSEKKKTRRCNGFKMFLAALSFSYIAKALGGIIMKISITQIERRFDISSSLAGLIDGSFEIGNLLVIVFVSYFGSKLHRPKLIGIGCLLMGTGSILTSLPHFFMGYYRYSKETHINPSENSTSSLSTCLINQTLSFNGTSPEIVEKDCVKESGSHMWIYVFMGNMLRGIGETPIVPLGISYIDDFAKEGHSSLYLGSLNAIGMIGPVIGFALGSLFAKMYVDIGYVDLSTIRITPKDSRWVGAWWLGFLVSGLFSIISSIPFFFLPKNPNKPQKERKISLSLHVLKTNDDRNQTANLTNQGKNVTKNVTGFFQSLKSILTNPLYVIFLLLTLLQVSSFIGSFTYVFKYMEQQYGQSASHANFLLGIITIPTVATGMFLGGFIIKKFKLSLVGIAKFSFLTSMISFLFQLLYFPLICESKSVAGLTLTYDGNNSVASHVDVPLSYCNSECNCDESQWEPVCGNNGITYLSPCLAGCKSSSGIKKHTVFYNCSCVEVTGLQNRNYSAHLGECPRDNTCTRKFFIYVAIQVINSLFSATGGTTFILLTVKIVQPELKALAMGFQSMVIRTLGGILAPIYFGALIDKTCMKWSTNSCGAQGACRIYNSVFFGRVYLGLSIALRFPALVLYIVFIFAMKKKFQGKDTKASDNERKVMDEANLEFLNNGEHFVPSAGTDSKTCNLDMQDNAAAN
The data set is described as follows: Substrates of transporters of clinical importance in the absorption and disposition of drugs, OATP1B3.

Data set [2] deals with T2, Solute carrier family 15 member 2 (Homo sapiens, UniProt Q16348).
T2 sequence (Q16348 whole entry): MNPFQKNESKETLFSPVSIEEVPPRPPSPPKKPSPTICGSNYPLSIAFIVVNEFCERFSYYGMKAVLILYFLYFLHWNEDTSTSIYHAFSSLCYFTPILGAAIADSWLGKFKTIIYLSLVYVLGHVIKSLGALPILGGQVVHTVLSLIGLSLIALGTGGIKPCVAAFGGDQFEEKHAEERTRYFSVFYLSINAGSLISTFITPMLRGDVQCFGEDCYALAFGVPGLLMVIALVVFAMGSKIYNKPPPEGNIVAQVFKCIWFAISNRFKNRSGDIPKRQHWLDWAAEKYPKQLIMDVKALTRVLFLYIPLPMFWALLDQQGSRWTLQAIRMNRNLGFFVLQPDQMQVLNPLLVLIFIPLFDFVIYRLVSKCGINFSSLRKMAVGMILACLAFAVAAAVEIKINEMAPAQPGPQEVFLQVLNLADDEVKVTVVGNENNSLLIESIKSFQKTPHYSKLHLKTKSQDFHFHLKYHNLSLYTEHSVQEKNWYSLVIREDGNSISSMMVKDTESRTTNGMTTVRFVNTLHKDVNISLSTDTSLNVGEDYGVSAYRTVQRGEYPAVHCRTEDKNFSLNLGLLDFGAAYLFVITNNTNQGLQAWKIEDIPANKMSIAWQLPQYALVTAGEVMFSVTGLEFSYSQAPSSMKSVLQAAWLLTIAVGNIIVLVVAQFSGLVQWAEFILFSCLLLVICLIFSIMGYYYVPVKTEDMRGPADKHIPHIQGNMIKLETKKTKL
The data set is described as follows: Substrates of transporters of clinical importance in the absorption and disposition of drugs, PEPT2.

Data set [3] addresses T3, Solute carrier family 15 member 1 (Homo sapiens, UniProt P46059).
T3 sequence (P46059 whole entry): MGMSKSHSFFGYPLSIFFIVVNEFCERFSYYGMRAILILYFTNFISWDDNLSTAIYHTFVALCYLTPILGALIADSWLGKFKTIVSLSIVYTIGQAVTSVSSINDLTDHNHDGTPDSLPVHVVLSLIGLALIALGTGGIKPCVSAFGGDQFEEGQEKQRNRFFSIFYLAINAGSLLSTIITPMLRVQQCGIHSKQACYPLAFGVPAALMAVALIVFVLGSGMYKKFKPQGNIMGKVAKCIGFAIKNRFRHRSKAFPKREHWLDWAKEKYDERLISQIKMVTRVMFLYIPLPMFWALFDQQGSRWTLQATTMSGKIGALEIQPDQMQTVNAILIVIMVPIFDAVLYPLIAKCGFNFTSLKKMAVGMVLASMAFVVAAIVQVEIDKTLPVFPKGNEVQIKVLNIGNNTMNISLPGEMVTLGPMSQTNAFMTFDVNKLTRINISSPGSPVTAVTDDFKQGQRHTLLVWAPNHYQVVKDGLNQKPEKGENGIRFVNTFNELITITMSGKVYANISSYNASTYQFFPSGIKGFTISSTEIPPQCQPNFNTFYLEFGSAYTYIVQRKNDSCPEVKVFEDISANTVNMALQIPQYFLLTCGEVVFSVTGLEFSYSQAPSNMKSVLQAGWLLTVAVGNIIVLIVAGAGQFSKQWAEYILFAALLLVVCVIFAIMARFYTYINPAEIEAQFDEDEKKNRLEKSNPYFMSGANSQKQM
The data set is described as follows: Substrates of transporters of clinical importance in the absorption and disposition of drugs, PEPT1.

Data set [4] has as its target T4, Solute carrier family 22 member 2 (Homo sapiens, UniProt O15244).
T4 sequence (O15244 whole entry): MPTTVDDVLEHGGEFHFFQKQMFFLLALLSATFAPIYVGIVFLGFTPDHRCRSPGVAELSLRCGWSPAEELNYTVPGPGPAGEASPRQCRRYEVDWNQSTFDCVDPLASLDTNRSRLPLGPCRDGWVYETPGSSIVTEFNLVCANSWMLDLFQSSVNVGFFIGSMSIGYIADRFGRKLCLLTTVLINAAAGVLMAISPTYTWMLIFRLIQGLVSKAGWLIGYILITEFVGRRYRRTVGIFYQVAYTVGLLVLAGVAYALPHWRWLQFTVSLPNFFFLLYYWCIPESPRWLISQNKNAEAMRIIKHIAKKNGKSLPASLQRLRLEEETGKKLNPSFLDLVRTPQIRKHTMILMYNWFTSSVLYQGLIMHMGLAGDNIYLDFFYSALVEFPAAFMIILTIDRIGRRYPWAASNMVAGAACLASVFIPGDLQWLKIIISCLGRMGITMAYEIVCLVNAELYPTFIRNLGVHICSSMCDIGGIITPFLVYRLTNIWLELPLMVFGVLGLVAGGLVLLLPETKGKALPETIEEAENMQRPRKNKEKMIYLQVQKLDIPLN
The data set is described as follows: Substrates of transporters of clinical importance in the absorption and disposition of drugs, OCT2.

In data set [5] the target is T5, Solute carrier organic anion transporter family member 1B1 (Homo sapiens, UniProt Q9Y6L6).
T5 sequence (Q9Y6L6 whole entry): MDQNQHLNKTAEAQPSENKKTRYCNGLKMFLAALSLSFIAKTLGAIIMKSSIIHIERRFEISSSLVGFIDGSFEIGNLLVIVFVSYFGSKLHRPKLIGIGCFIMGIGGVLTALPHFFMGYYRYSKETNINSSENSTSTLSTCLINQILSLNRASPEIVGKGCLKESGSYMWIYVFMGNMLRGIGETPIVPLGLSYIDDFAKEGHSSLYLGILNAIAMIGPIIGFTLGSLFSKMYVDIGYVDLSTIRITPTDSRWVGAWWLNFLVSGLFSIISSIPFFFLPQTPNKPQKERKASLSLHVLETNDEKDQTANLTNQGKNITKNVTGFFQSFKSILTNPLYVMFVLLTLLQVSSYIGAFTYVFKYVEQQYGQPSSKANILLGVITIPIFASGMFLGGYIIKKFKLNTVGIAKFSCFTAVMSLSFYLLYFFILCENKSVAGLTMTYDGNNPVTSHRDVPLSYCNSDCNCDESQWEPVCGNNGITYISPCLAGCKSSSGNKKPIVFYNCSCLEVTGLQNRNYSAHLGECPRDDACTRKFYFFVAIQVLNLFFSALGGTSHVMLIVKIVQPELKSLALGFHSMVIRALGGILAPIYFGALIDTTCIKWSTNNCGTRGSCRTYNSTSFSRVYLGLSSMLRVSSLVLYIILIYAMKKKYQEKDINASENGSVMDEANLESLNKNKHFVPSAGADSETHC
In words: Substrates of transporters of clinical importance in the absorption and disposition of drugs, OATP1B1.

For data set [6], the target named is T6, Solute carrier organic anion transporter family member 1A2 (Homo sapiens, UniProt P46721).
T6 sequence (P46721 whole entry): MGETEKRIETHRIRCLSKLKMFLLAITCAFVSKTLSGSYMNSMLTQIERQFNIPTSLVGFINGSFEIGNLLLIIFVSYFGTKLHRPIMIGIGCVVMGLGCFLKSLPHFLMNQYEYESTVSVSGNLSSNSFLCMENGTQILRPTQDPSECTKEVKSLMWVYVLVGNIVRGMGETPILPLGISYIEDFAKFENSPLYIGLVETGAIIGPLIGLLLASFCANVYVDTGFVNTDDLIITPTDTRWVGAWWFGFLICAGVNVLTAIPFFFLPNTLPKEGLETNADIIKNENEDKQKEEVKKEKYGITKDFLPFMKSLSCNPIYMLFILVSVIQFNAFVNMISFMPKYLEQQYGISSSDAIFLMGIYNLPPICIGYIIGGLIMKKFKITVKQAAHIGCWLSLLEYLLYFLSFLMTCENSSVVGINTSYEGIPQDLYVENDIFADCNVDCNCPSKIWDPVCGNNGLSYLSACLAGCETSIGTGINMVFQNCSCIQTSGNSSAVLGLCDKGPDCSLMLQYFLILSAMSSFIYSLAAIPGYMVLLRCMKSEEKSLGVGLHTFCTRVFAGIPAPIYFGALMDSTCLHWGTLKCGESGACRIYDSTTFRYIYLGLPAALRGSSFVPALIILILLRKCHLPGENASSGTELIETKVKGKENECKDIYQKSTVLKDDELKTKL
In words: Substrates of transporters of clinical importance in the absorption and disposition of drugs, OATP1A2.

For the compound `CCCc1nc2c(C)cc(-c3nc4ccccc4n3C)cc2n1Cc1ccc(-c2ccccc2C(=O)O)cc1`, the Activity result in data set [1] is “transporter substrate”. For `CCOC(=O)[C@H](CCc1ccccc1)N[C@@H](C)C(=O)N1CCC[C@H]1C(=O)O`, the Activity result in data set [2] and in data set [3] was “transporter substrate” in each case. Regarding `NC12CC3CC(CC(C3)C1)C2` [AMANTADINE], in data set [4], the Activity entry is reported as “transporter substrate”.

In the case of `N=C(N)NC(=O)c1nc(Cl)c(N)nc1N` [AMILORIDE], the Activity result in data set [4] is given as “transporter substrate”. As for `NCC(=O)CCC(=O)O` [AMINOLEVULINIC ACID], the Activity entry in data set [2] and in data set [3] was “transporter substrate” in each case.

As for `C=CC1=C(C)/C(=C/c2[nH]c(Cc3[nH]c(/C=C4\NC(=O)C(C)=C4C=C)c(C)c3CCC(=O)O[C@@H]3O[C@H](C(=O)O)[C@@H](O)[C@H](O)[C@H]3O)c(CCC(=O)O[C@@H]3O[C@H](C(=O)O)[C@@H](O)[C@H](O)[C@H]3O)c2C)NC1=O` [BILIRUBIN GLUCURONIDE], the Activity entry in data set [5] was “transporter substrate”. `C=CC1=C(C)/C(=C/c2[nH]c(Cc3[nH]c(/C=C4\NC(=O)C(C)=C4C=C)c(C)c3CCC(=O)O)c(CCC(=O)O)c2C)NC1=O` [BILIRUBIN]: in data set [5], the Activity entry was “transporter substrate”. Consider `CC1=C(C(=O)O)N2C(=O)[C@@H](NC(=O)[C@H](N)c3ccc(O)cc3)[C@H]2SC1` [CEFADROXIL], for which the Activity result in data set [2] and in data set [3] was “transporter substrate” each time.

As for `CC1=C(C(=O)O)N2C(=O)[C@@H](NC(=O)[C@H](N)c3ccccc3)[C@H]2SC1` [CEPHALEXIN ANHYDROUS], the Activity entry in data set [2] and in data set [3] was “transporter substrate” each time. Take `CN(CC(=O)O)C(=O)CN` [GLYCYLSARCOSINE] (H-Gly-[Sar]-OH): the Activity result in data set [2] and in data set [3] was “transporter substrate” each time. With `C[C@H]1COc2c(N3CCN(C)CC3)c(F)cc3c(=O)c(C(=O)O)cn1c23.C[C@H]1COc2c(N3CCN(C)CC3)c(F)cc3c(=O)c(C(=O)O)cn1c23.O` [LEVOFLOXACIN], the Activity entry in data set [6] was “transporter substrate”. On to `C[C@@H]1O[C@@H](O[C@H]2C[C@@H](O)[C@]3(CO)[C@H]4[C@H](O)C[C@]5(C)[C@@H](C6=CC(=O)OC6)CC[C@]5(O)[C@@H]4CC[C@]3(O)C2)[C@H](O)[C@H](O)[C@H]1O` [OUABAIN], for which, in data set [6], the Activity result was “transporter substrate”.

For the compound `CC(C)NCC(O)COc1cccc2[nH]ccc12` (stereo not drawn) [PINDOLOL], in data set [4], the Activity entry is given as “transporter substrate”. On the same count and under the same terms, the entry for `CNC(=C[N+](=O)[O-])NCCSCc1ccc(CN(C)C)o1` [RANITIDINE] is “transporter substrate”. `CCOc1cc(CC(=O)N[C@@H](CC(C)C)c2ccccc2N2CCCCC2)ccc1C(=O)O` [REPAGLINIDE]: the Activity result in data set [5] is listed as “transporter substrate”. In the case of `CSCC[C@H](NC(=O)[C@H](Cc1ccc(OS(=O)(=O)O)cc1)NC(=O)[C@@H](N)CC(=O)O)C(=O)NCC(=O)N[C@@H](Cc1c[nH]c2ccccc12)C(=O)N[C@@H](CCSC)C(=O)N[C@@H](CC(=O)O)C(=O)N[C@@H](Cc1ccccc1)C(N)=O` [SINCALIDE], in data set [1], the Activity result is on record as “transporter substrate”. As for `CCCc1nc2c(C)cc(-c3nc4ccccc4n3C)cc2n1Cc1ccc(-c2ccccc2C(=O)O[C@@H]2O[C@H](C(=O)O)[C@@H](O)[C@H](O)[C@H]2O)cc1` [TELMISARTAN GLUCURONIDE], in data set [1], the Activity result is on record as “transporter substrate”. For `c1cnc2cc3c(cc2n1)[C@@H]1CNC[C@H]3C1` [VARENICLINE], in data set [4], the Activity entry is “transporter substrate”.

These data come from ChEMBL document CHEMBL1743141, “Membrane transporters in drug development” (Nat Rev Drug Discov, 2010).
